According to ChEMBL document CHEMBL1201862, “PubChem BioAssay data set” (2004):
Blank lines part the entries; values can stand above or below the compound they belong to. Calls of active or inactive are those of the source.

What was measured:
[1] = protection from phage-mediated lysis, alamar blue read-out – E. coli UTI89, K1F phage, bacterial capsule biogenesis inhibitors (AID 488966); type: functional
[2] = Cytotoxicity screening for potential Inhibitors of Bacterial Capsule Biogenesis. [Related pubchem assays (depositor defined):AID488970]; type: functional
[3] = target: T1, Short transient receptor potential channel 4 (Mus musculus, UniProt Q9QUQ5); experiment: block of DAMGO-driven TRPC4 calcium entry – cell-based, HEK293 TRPC4/mu-opioid, Fluo-4 calcium, dose response (AID 434942); type: functional;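 note: potency of inhibitors blocking the TRPC4 calcium response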
T1 sequence (Q9QUQ5 whole entry): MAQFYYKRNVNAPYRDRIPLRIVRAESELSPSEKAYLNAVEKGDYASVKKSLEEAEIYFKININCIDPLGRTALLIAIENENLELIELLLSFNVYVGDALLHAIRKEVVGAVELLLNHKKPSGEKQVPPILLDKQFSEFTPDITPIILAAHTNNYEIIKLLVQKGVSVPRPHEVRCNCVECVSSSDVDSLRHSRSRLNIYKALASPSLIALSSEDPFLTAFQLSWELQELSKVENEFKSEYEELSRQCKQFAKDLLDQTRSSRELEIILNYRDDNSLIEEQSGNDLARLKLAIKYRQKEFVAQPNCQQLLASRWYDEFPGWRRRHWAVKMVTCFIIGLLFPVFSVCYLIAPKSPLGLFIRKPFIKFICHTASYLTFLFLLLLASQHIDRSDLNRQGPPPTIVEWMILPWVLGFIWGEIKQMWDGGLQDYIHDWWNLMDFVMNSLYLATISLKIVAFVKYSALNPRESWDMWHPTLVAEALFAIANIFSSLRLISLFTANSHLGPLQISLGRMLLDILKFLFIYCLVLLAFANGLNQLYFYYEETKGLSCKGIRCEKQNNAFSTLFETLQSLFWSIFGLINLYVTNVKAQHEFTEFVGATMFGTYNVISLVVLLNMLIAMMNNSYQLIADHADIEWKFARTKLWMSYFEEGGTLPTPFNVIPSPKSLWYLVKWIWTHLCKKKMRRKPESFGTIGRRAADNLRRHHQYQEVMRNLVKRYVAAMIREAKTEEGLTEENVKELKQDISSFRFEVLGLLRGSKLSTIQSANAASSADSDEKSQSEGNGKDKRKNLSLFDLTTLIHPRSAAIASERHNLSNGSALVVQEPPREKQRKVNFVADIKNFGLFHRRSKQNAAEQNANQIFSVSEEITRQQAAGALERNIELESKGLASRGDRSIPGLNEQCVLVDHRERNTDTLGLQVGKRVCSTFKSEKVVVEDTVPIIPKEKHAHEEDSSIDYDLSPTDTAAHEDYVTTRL

[4] = target: Large T antigen (Simian virus 40, UniProt P03070); type: functional, Betapolyomavirus macacae;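 note: Confirmatory-stage PubChem screen for compounds that inhibit SV40 T antigen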
[5] = target: T2, Voltage-gated N-type calcium channel alpha-1B subunit/Amyloid beta A4 precursor protein-binding family A member 1 (Homo sapiens, UniProt Q00975+Q02410); type: protein assay
[6] = target: T2, Voltage-gated N-type calcium channel alpha-1B subunit/Amyloid beta A4 precursor protein-binding family A member 1; type: protein assay; remark: listed apart in the source
[7] = target: Cytochrome P450 2C9 (Homo sapiens, UniProt P11712)
[8] = target: Cytochrome P450 2C19 (Homo sapiens, UniProt P33261); experiment: Cytochrome panel assay with activity outcomes. Panel member name: p450-cyp2c19 Compounds with AC50 equal or less than 10 uM are considered active; type: functional; settings: read-out: AC50
[9] = target: T2, Voltage-gated N-type calcium channel alpha-1B subunit/Amyloid beta A4 precursor protein-binding family A member 1; experiment: disruptors of Mint-PDZ/N-type channel peptide interaction – biochemical, HTRF, SAR follow-up (AID 2489); type: functional
[10] = target: T3, Mannose-6-phosphate isomerase (Homo sapiens, UniProt P34949); experiment: phosphomannose isomerase inhibition – biochemical, fluorescence intensity, confirmation (AID 1535)
T3 sequence (P34949 whole entry): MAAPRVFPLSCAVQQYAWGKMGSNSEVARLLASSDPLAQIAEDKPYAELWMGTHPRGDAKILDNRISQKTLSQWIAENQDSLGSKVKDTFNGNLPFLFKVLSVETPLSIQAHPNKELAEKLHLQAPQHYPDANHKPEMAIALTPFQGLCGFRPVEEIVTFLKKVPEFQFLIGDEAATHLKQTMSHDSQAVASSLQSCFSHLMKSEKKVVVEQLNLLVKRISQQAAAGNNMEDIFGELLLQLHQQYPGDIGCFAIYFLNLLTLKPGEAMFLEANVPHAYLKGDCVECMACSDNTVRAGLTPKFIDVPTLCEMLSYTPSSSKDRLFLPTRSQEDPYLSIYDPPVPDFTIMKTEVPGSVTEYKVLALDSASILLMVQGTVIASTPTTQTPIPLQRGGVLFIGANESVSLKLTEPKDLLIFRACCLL

[11] = target: Alkaline phosphatase, placental type (Homo sapiens, UniProt P05187); experiment: human placental alkaline phosphatase inhibition – biochemical, luminescence, confirmation (AID 1512); type: functional
[12] = target: T3, Mannose-6-phosphate isomerase; experiment: Confirmation of compounds inhibiting phosphomannose isomerase (PMI) via a fluorescence intensity assay using a high concentration of mannose 6-phosphate. [Related pubchem assays (depositor defined):AID1209, AID1220, AID1545, AID1553, AID1620]
[13] = target: Keap1/Nrf2 (Homo sapiens, UniProt Q14145); experiment: disruptors of Keap1 binding to Nrf2 peptide – biochemical, fluorescence polarization, cherry-picked samples, dose response (AID 588683)
[14] = target: ORF 73 (Human herpesvirus 8, UniProt O40947); experiment: KSHV LANA DNA-binding disruption – biochemical, fluorescence polarization, cherry-picked samples, dose response (AID 504725); design: species or system Human gammaherpesvirus 8;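 note: fluorescence polarization of a labeled DNA duplex reporting LANA DNA binding; potency is for inhibitors that block LANA binding to the DNA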
[15] = system: Salmon testes DNA; experiment: acridine orange-DNA binding displacement – biochemical, fluorescence polarization, cherry-picked samples, set 2, artefact control for KSHV LANA DNA-binding inhibitor project, dose response (AID 504727); design: species or system Salmonidae
[16] = target: Delta-type opioid receptor (Homo sapiens, UniProt P41143); experiment: SAR Analysis of Antagonists of the DOR Receptor using an Image-Based Assay - Set 3. [Related pubchem assays (depositor defined):AID1777, AID1785]; type: functional;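 note: U2OS cells expressing DOR1 and beta-arrestin GFP stimulated with 100 nM SNC80; imaging of GFP-tagged beta-arrestin moving into spots after receptor activation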
[17] = target: T4, Kappa-type opioid receptor (Homo sapiens, UniProt P41145); experiment: SAR analysis of Antagonists of the Kappa Opioid Receptor (KOR) using an Image-Based Assay - Set 4. [Related pubchem assays (depositor defined):AID1777, AID1785]; type: functional
[18] = target: T4, Kappa-type opioid receptor; experiment: SAR analysis of small molecule antagonists of the kappa opioid receptor via a luminescent beta-arrestin assay - Set 4. [Related pubchem assays (depositor defined):AID1777, AID1778, AID1785, AID1786, AID1966, AID2133, AID2136, AID2285]; type: functional
[19] = target: Mu-type opioid receptor (Homo sapiens, UniProt P35372); experiment: SAR Analysis of Antagonists of the MOR Receptor using an Image-Based Assay - Set 3. [Related pubchem assays (depositor defined):AID1777, AID1785, AID1786, AID1966, AID2133, AID2136, AID2284, AID2285, AID2420]; type: functional

T2 sequence (Q00975 whole entry): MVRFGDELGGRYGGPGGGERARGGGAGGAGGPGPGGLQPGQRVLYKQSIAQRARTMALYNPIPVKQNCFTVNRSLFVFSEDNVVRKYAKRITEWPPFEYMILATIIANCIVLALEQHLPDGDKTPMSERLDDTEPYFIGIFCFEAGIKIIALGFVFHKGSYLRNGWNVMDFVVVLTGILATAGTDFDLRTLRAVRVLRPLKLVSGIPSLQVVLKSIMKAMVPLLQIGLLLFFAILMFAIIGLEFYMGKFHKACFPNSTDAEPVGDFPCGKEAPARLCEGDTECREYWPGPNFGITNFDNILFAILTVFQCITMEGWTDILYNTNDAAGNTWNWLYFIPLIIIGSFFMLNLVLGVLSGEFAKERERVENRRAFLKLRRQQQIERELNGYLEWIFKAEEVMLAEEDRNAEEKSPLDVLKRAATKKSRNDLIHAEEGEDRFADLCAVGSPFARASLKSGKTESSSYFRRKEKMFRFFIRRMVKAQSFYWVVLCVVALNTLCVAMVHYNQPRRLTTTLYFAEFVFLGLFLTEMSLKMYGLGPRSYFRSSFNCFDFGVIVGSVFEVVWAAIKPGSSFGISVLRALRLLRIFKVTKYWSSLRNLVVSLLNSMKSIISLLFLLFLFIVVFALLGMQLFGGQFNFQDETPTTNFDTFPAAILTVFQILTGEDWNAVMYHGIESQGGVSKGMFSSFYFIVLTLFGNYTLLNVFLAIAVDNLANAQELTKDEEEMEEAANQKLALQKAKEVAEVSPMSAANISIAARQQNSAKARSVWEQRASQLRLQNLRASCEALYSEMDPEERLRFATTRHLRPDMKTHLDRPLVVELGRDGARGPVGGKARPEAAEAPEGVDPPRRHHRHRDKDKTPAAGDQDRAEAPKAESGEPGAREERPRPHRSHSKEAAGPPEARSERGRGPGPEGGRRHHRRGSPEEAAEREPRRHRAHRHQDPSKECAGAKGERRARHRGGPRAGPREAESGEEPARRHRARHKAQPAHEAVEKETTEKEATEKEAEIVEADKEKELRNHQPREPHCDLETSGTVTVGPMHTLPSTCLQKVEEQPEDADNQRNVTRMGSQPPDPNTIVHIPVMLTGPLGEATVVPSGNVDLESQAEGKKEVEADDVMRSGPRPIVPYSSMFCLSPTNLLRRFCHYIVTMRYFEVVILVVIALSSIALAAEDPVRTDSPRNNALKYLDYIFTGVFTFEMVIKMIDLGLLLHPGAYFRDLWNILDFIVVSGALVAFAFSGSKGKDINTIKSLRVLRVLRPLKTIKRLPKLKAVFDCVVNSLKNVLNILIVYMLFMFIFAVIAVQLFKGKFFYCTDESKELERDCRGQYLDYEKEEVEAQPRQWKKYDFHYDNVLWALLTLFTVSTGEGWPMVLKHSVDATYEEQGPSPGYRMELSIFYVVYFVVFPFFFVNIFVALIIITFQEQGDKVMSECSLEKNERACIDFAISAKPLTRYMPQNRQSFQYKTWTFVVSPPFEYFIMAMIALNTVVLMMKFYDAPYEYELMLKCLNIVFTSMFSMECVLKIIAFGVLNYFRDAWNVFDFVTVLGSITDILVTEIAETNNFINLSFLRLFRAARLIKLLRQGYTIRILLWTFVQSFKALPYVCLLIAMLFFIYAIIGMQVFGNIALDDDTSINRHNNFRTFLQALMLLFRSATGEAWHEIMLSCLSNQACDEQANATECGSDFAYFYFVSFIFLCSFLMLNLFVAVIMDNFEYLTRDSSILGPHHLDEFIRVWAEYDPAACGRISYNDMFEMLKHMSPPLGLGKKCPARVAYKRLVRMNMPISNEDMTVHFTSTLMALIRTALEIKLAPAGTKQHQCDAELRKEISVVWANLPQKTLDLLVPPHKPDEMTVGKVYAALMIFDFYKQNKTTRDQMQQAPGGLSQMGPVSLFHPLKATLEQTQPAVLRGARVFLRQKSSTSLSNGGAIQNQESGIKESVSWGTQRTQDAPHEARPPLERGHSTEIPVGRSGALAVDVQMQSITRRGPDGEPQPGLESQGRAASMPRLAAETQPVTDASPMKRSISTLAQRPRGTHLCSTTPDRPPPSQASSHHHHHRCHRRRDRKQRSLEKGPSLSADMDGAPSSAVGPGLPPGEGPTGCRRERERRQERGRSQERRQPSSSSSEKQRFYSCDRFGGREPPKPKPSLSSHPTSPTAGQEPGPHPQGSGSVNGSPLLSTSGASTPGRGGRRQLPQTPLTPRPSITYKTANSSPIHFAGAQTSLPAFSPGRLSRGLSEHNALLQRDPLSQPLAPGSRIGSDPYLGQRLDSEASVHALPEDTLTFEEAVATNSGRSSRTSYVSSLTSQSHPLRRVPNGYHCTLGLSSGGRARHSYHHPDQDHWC
T2 sequence (Q02410 whole entry): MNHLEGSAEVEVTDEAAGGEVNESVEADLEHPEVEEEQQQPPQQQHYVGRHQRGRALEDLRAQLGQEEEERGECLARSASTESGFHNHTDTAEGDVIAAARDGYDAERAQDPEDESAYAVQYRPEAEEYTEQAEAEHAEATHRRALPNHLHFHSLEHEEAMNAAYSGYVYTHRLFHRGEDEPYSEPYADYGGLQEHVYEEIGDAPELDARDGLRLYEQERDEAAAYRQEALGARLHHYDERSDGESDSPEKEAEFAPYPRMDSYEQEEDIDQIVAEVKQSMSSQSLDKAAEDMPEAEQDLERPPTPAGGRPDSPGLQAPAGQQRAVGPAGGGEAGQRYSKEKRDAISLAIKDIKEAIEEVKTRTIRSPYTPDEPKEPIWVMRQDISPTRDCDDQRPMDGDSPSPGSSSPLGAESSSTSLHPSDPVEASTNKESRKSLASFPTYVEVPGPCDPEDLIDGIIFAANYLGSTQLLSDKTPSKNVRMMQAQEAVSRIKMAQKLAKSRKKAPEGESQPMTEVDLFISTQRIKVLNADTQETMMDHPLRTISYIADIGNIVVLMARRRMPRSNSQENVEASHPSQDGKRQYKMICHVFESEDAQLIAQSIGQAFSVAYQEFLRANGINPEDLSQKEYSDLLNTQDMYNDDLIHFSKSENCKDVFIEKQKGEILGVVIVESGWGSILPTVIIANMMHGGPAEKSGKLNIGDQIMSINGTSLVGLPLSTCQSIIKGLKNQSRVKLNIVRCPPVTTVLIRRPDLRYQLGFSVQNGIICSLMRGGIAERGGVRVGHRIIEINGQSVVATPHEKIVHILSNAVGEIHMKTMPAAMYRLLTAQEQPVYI
T4 sequence (P41145 whole entry): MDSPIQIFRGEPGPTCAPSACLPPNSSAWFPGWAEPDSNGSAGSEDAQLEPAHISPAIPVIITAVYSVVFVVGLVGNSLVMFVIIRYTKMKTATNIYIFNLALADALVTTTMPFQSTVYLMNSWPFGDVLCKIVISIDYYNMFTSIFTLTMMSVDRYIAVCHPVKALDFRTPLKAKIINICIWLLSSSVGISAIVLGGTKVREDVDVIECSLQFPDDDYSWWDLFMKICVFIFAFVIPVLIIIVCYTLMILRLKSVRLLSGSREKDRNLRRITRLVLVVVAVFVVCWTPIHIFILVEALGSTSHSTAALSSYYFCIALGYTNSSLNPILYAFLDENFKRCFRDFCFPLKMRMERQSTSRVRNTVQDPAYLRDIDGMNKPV
Chain of Cytochrome P450 2C9 (P11712 whole entry): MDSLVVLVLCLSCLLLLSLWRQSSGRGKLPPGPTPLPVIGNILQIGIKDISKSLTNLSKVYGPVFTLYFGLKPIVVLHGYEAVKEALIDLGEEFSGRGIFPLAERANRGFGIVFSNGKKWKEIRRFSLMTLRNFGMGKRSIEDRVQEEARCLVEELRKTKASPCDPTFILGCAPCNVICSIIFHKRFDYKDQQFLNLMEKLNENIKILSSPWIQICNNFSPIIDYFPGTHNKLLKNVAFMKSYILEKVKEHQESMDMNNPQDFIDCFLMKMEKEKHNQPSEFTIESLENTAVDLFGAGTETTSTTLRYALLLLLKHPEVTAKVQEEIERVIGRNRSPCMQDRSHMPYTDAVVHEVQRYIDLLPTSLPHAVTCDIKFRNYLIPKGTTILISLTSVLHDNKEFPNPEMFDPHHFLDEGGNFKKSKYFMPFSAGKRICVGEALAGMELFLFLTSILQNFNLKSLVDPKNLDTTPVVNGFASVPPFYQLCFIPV
Chain of Delta-type opioid receptor (P41143 whole entry): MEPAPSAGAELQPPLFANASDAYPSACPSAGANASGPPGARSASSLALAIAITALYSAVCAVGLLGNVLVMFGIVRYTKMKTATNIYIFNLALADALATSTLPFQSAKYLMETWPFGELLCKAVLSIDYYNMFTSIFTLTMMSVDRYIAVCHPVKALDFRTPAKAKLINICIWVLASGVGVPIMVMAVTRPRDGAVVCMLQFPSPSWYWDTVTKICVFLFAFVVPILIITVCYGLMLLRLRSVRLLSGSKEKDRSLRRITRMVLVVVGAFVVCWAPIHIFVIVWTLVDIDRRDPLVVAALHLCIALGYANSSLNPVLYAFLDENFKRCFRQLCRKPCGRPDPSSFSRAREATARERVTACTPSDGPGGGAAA
Chain of Alkaline phosphatase, placental type (P05187 whole entry): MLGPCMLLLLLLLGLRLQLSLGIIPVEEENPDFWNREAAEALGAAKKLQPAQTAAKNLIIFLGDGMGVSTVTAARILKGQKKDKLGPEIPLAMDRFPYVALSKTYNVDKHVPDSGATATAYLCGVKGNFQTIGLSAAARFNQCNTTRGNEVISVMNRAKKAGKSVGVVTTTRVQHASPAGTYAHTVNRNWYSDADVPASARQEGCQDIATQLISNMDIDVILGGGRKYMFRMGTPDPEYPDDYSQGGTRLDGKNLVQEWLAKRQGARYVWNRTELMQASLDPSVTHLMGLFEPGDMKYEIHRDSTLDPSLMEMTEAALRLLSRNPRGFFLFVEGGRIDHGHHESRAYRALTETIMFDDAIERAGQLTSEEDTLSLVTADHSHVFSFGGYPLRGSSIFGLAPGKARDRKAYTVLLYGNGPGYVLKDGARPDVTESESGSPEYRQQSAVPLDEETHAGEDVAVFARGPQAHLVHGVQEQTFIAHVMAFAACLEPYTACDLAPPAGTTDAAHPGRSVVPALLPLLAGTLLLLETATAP

Structure (SMILES): COc1cc(/C=C/C(=O)NC(=O)c2ccccc2O)ccc1OC(C)=O
- IC50 [1]: > 150 µM (active)

Structure (SMILES): Nc1ccc(-c2nc3ccc(N)c(Cl)c3[nH]2)cc1
- IC50 [4]: 7.64 µM (active)
- IC50 [5]: 9.64 µM (active)
- IC50 [6]: 1.94 µM (active)
- AC50 [7]: 0.112 µM (inconclusive)
- AC50 [8]: 6.31 µM (inconclusive)
- IC50 [9]: 11.6 µM (active)

Structure (SMILES): CCN1C(=O)C2(NNc3ccccc3O2)c2ccccc21 (centres undefined)
- IC50 [10]: > 100 µM (inactive)
- IC50 [11]: > 100 µM (inactive)
- IC50 [12]: > 100 µM (inactive)

Structure (SMILES): Cc1oc2cc(O)ccc2c(=O)c1-c1nncn1-c1ccccc1
- AC50 [13]: 43.4 µM (active)
- AC50 [14]: 26.6 µM (active)
- AC50 [15]: 49.4 µM (active)

Second part, led by results:

- EC50 [3]: 2.99 µM (active)
Structure (SMILES): CCOc1ccc(-c2cc(NC(=O)c3c(F)cccc3F)c(C(=O)O)s2)cc1
- CC50 [2]: 66.7 µM (active)

- IC50 [16]: > 32 µM (inactive)
- IC50 [17]: > 32 µM (inactive)
- IC50 [18]: > 20 µM (inactive)
- IC50 [19]: > 32 µM (inactive)
Structure (SMILES): Cc1ccc(S(=O)(=O)NCc2ccc(C(=O)NC3CCN(Cc4ccccc4)CC3)cc2)cc1
